Reference: US8501770B2 (ArQule, Inc., priority 2009, dated 2013)

Biological target: Full-length inactive AKT1 (Homo sapiens, UniProt P31749)
Assay: Inactive Akt Alpha Screen Assay
Type: biochemical
Details: values not marked with "*"; read-out: Akt1 IC50, (AlphaScreen)
Procedure, shortened: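 AlphaScreen read-out (excitation 640 nm, emission 570 nm) after 90 min incubation at room temperature in the dark. Signal comes from crosstide phosphorylation by AKT1, which was activated by added PDK1, MAPKAPK2, ATP and lipid vesicles, captured via phospho-AKT substrate antibody and streptavidin beads.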

Chain of Full-length inactive AKT1 (P31749 whole entry): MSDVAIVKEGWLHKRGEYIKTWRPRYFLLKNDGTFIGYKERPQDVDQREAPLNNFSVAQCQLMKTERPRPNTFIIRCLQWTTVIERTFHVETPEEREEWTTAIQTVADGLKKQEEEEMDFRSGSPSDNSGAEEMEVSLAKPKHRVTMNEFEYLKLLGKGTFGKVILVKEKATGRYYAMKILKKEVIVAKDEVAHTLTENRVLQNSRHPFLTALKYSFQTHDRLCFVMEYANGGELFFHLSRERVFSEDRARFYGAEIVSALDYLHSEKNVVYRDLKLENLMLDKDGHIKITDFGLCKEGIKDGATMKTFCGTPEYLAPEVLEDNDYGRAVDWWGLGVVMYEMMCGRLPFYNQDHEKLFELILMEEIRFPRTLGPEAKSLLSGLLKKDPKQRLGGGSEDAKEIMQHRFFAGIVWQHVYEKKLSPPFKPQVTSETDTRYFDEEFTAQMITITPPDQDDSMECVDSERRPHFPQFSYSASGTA

IC50 [nM]	SMILES
34	Nc1ncccc1-c1nc2ccc(-c3ccc(C(=O)O)o3)nc2n1-c1ccc(CNC(=O)c2cccc(F)c2)cc1 [Example 312, 5-(2-(2-aminopyridin-3-yl)-3-(4-((3-fluoro-benzamido)methyl)phenyl)-3H-imidazo[4,5-b]pyridin-5-yl)furan-2-carboxylic acid]
35	Nc1ncccc1-c1nc2ccc(-c3ccco3)nc2n1-c1ccc(CNC(=O)c2cccc(F)c2)cc1 [Example 316, N-(4-(2-(2-aminopyridin-3-yl)-5-(furan-2-yl)-3H-imidazo[4,5-b]pyridin-3-yl)benzyl)-3-fluorobenzamide]
24	Nc1ncccc1-c1nc2ccc(-c3ccsc3)nc2n1-c1ccc(CNC(=O)c2cccc(F)c2)cc1 [Example 317, N-(4-(2-(2-aminopyridin-3-yl)-5-(thiophen-3-yl)-3H-imidazo[4,5-b]pyridin-3-yl)benzyl)-3-fluorobenzamide]
76	Cc1cc2nc(-c3cccnc3N)n(-c3ccc(CNC(=O)c4cccc(F)c4)cc3)c2nc1C [Example 321, N-(4-(2-(2-aminopyridin-3-yl)-5,6-dimethyl-3H-imidazo[4,5-b]pyridin-3-yl)benzyl)-3-fluorobenzamide]
77	Cc1cc2nc(-c3cccnc3N)n(-c3ccc(CNC(=O)c4ccccc4)cc3)c2nc1C [Example 322, N-(4-(2-(2-aminopyridin-3-yl)-5,6-dimethyl-3H-imidazo[4,5-b]pyridin-3-yl)benzyl)benzamide]
150	CC(=O)Nc1cccc(NC(=O)Cc2ccc(-n3c(-c4cccnc4N)nc4ccc(C)nc43)cc2)c1 [Example 323, N-(3-acetamidophenyl)-2-(4-(2-(2-aminopyridin-3-yl)-5-methyl-3H-imidazo[4,5-b]pyridin-3-yl)phenyl)acetamide]
33	CC(=O)Nc1cccc(-c2ccc3nc(-c4cccnc4N)n(-c4ccc(CNS(=O)(=O)c5cn(C)cn5)cc4)c3n2)c1 [Example 325, N-(3-(2-(2-aminopyridin-3-yl)-3-(4-((1-methyl-1H-imidazole-4-sulfonamido)methyl)phenyl)-3H-imidazo[4,5-b]pyridin-5-yl)phenyl)acetamide]
320	COC(=O)c1ccc(-c2ccc3nc(-c4cccnc4N)n(-c4ccc(CNC(=O)c5cccc(F)c5)cc4)c3n2)cc1 [Example 336, methyl 4-(2-(2-aminopyridin-3-yl)-3-(4-((3-fluorobenzamido)methyl)phenyl)-3H-imidazo[4,5-b]pyridin-5-yl)benzoate]
82	Nc1ncccc1-c1nc2ccc(-c3cncnc3)nc2n1-c1ccc(CNC(=O)c2cccc(F)c2)cc1 [Example 337, N-(4-(2-(2-aminopyridin-3-yl)-5-(pyrimidin-5-yl)-3H-imidazo[4,5-b]pyridin-3-yl)benzyl)-3-fluorobenzamide]
32	CNC(=O)Cc1ccc(-n2c(-c3cccnc3N)nc3ccc(-c4cccc(NC(C)=O)c4)nc32)cc1 [Example 341, 2-(4-(5-(3-acetamidophenyl)-2-(2-aminopyridin-3-yl)-3H-imidazo[4,5-b]pyridin-3-yl)phenyl)-N-methylacetamide]
110	CC(=O)Nc1cccc(NC(=O)Cc2ccc(-n3c(-c4cccnc4N)nc4cc(C)cnc43)cc2)c1 [Example 343, N-(3-acetamidophenyl)-2-(4-(2-(2-aminopyridin-3-yl)-6-methyl-3H-imidazo[4,5-b]pyridin-3-yl)phenyl)acetamide]
23	CC(=O)Nc1cccc(-c2nc3c(cc2C)nc(-c2cccnc2N)n3-c2ccc(CNC(=O)c3ccccc3)cc2)c1 [Example 344, N-(4-(5-(3-acetamidophenyl)-2-(2-aminopyridin-3-yl)-6-methyl-3H-imidazo[4,5-b]pyridin-3-yl)benzyl)benzamide]
44	Cc1cc2nc(-c3cccnc3N)n(-c3ccc(CNC(=O)c4ccccc4)cc3)c2nc1-c1ccccc1 [Example 345, N-(4-(2-(2-aminopyridin-3-yl)-6-methyl-5-phenyl-3H-imidazo[4,5-b]pyridin-3-yl)benzyl)benzamide]
86	Cc1cc2nc(-c3cccnc3N)n(-c3ccc(CNC(=O)c4ccccc4)cc3)c2nc1Cl [Example 346, N-(4-(2-(2-aminopyridin-3-yl)-5-chloro-6-methyl-3H-imidazo[4,5-b]pyridin-3-yl)benzyl)benzamide]
54	CC(=O)Nc1cccc(C(=O)NCc2ccc(-n3c(-c4cccnc4N)nc4cc(C)c(C)nc43)cc2)c1 [Example 347, 3-acetamido-N-(4-(2-(2-aminopyridin-3-yl)-5,6-dimethyl-3H-imidazo[4,5-b]pyridin-3-yl)benzyl)benzamide]

Second part, the compound before the results:

SMILES	IC50 [nM]
CS(=O)(=O)Nc1ccccc1-c1ccc2nc(-c3cccnc3N)n(-c3ccc(CNC(=O)c4cccc(F)c4)cc3)c2n1 [Example 313, N-(4-(2-(2-aminopyridin-3-yl)-5-(2-(methylsulfonamido)phenyl)-3H-imidazo[4,5-b]pyridin-3-yl)benzyl)-3-fluorobenzamide]	120
NCc1ccc(-c2ccc3nc(-c4cccnc4N)n(-c4ccc(CNC(=O)c5cccc(F)c5)cc4)c3n2)cc1 [Example 314, N-(4-(5-(4-(aminomethyl)phenyl)-2-(2-aminopyridin-3-yl)-3H-imidazo[4,5-b]pyridin-3-yl)benzyl)-3-fluorobenzamide]	25
C[S+]([O-])c1ccc(-c2ccc3nc(-c4cccnc4N)n(-c4ccc(CNC(=O)c5cccc(F)c5)cc4)c3n2)cc1 (centres unmarked) [Example 315, N-(4-(2-(2-aminopyridin-3-yl)-5-(4-(methylsulfinyl)phenyl)-3H-imidazo[4,5-b]pyridin-3-yl)benzyl)-3-fluorobenzamide]	36
Cc1ccc2cc(NC(=O)Cc3ccc(-n4c(-c5cccnc5N)nc5cc(-c6cccnc6)cnc54)cc3)ccc2n1 [Example 318, 2-(4-(2-(2-aminopyridin-3-yl)-6-(pyridin-3-yl)-3H-imidazo[4,5-b]pyridin-3-yl)phenyl)-N-(2-methylquinolin-6-yl)acetamide]	19
CC(=O)Nc1ccc(NC(=O)Cc2ccc(-n3c(-c4cccnc4N)nc4cc(-c5cccnc5)cnc43)cc2)cc1 [Example 319, N-(4-acetamidophenyl)-2-(4-(2-(2-aminopyridin-3-yl)-6-(pyridin-3-yl)-3H-imidazo[4,5-b]pyridin-3-yl)phenyl)acetamide]	22
Nc1ncccc1-c1nc2cc(-c3cccnc3)cnc2n1-c1ccc(CC(=O)Nc2cccc(F)c2)cc1 [Example 320, 2-(4-(2-(2-aminopyridin-3-yl)-6-(pyridin-3-yl)-3H-imidazo[4,5-b]pyridin-3-yl)phenyl)-N-(3-fluorophenyl)acetamide]	57
N#Cc1ccc(-c2ccc3nc(-c4cccnc4N)n(-c4ccc(CNC(=O)c5cccc(F)c5)cc4)c3n2)cc1 [Example 326, N-(4-(2-(2-aminopyridin-3-yl)-5-(4-cyanophenyl)-3H-imidazo[4,5-b]pyridin-3-yl)benzyl)-3-fluorobenzamide]	650
Nc1ccccc1-c1ccc2nc(-c3cccnc3N)n(-c3ccc(CNC(=O)c4cccc(F)c4)cc3)c2n1 [Example 327, N-(4-(5-(2-aminophenyl)-2-(2-aminopyridin-3-yl)-3H-imidazo[4,5-b]pyridin-3-yl)benzyl)-3-fluorobenzamide]	91
Nc1ncccc1-c1nc2ccc(-c3ccccc3O)nc2n1-c1ccc(CNC(=O)c2cccc(F)c2)cc1 [Example 328, N-(4-(2-(2-aminopyridin-3-yl)-5-(2-hydroxyphenyl)-3H-imidazo[4,5-b]pyridin-3-yl)benzyl)-3-fluorobenzamide]	47
Nc1ncccc1-c1nc2ccc(-c3ccc(F)cc3)nc2n1-c1ccc(CNC(=O)c2cccc(F)c2)cc1 [Example 329, N-(4-(2-(2-aminopyridin-3-yl)-5-(4-fluorophenyl)-3H-imidazo[4,5-b]pyridin-3-yl)benzyl)-3-fluorobenzamide]	360
Nc1ncccc1-c1nc2ccc(-c3ccc(O)cc3)nc2n1-c1ccc(CNC(=O)c2cccc(F)c2)cc1 [Example 330, N-(4-(2-(2-aminopyridin-3-yl)-5-(4-hydroxyphenyl)-3H-imidazo[4,5-b]pyridin-3-yl)benzyl)-3-fluorobenzamide]	120
Nc1ncccc1-c1nc2ccc(-c3ccc4cc[nH]c4c3)nc2n1-c1ccc(CNC(=O)c2cccc(F)c2)cc1 [Example 331, N-(4-(2-(2-aminopyridin-3-yl)-5-(1H-indol-6-yl)-3H-imidazo[4,5-b]pyridin-3-yl)benzyl)-3-fluorobenzamide]	420
Nc1ncccc1-c1nc2ccc(-c3ccc4c(c3)OCCO4)nc2n1-c1ccc(CNC(=O)c2cccc(F)c2)cc1 [Example 332, N-(4-(2-(2-aminopyridin-3-yl)-5-(2,3-dihydro-benzo[b][1,4]dioxin-6-yl)-3H-imidazo[4,5-b]pyridin-3-yl)benzyl)-3-fluorobenzamide]	160
Nc1ncccc1-c1nc2ccc(-c3ccncc3)nc2n1-c1ccc(CNC(=O)c2cccc(F)c2)cc1 [Example 334, N-(4-(2-(2-aminopyridin-3-yl)-5-(pyridin-4-yl)-3H-imidazo[4,5-b]pyridin-3-yl)benzyl)-3-fluorobenzamide]	36
N#Cc1cccc(-c2ccc3nc(-c4cccnc4N)n(-c4ccc(CNC(=O)c5cccc(F)c5)cc4)c3n2)c1 [Example 335, N-(4-(2-(2-aminopyridin-3-yl)-5-(3-cyanophenyl)-3H-imidazo[4,5-b]pyridin-3-yl)benzyl)-3-fluorobenzamide]	182
CC(=O)Nc1cccc(-c2ccc3nc(-c4cccnc4N)n(-c4ccc(C5(NC(=O)OC(C)(C)C)CCC5)cc4)c3n2)c1 [Example 340, tert-butyl (1-(4-(5-(3-acetamidophenyl)-2-(2-aminopyridin-3-yl)-3H-imidazo[4,5-b]pyridin-3-yl)phenyl)cyclobutyl)carbamate]	350
CC(=O)Nc1ccc(NC(=O)Cc2ccc(-n3c(-c4cccnc4N)nc4cc(F)cnc43)cc2)cc1 [Example 342, N-(4-acetamidophenyl)-2-(4-(2-(2-aminopyridin-3-yl)-6-fluoro-3H-imidazo[4,5-b]pyridin-3-yl)phenyl)acetamide]	61
